Measurements: patent publication US7888474B2, “HDM2 polypeptides” (Schering Corporation, priority 2007, dated 2011)

Tests used:
HDM2 [1] = molecular target: T1, HDM2 (Homo sapiens, UniProt Q00987); experiment: Fluorescent polarization assay (FAM-labeled p53 peptide ligand competition); type: binding; conditions: 10 nM HDM2 protein, 1 nM FAM-labeled p53 peptide ligand, PBS buffer; for Ki: non-linear regression
HDM2 [2] = molecular target: T1, HDM2; experiment: TdF assay (thermal melting with Sypro Orange); type: binding; conditions: 6 uM HDM2, 10 mM HEPES pH 7.4, 150 mM NaCl, 1 mM DTT, 10 and 20 uM compound

T1 sequence (Q00987 whole entry): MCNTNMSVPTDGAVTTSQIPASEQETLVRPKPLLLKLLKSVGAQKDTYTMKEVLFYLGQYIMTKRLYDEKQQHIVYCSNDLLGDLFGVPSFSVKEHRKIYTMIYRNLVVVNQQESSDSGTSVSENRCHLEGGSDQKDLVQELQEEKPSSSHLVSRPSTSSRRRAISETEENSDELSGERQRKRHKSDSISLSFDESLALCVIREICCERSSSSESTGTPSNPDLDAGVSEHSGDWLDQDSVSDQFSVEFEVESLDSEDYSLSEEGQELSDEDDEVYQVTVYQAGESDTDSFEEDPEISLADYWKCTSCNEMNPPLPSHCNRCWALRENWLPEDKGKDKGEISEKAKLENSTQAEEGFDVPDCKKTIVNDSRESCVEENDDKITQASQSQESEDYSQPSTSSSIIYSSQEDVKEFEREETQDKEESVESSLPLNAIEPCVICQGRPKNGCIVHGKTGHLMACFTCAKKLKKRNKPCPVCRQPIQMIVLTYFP

| SMILES | IC50 (HDM2 [1]) | Ki (HDM2 [1]) | Kd (HDM2 [2]) |
| --- | --- | --- | --- |
| O=C(c1cnccc1C(F)(F)F)N1CCCC(Oc2ccc(C(F)(F)F)cc2)(C(=O)N2CCN(c3ccccn3)CC2)C1 (stereo not drawn) [Compound 1] | < 5000 nM | < 2000 nM | < 2000 nM |
| COCCOc1ccccc1N1CCN(C(=O)[C@]2(Oc3ccc(C(F)(F)F)cc3)CCCN(C(=O)c3cnccc3C(F)(F)F)[C@@H]2C(O)C(C)O)CC1 (stereo partly drawn) [Compound 4] | < 5000 nM | < 2000 nM | < 2000 nM |
